According to patent US20240002429A1, “PRODRUG OF 5a-HYDROXY-6ß-[2-(1H-IMIDAZOL-4-YL)ETHYLAMINO]CHOLESTAN-3ß-OL AND PHARMACEUTICAL COMPOSITIONS COMPRISING SAME FOR USE IN THE TREATMENT OF CANCER” (priority 2020, published 2024):

Tests used:
[1] = molecular target: T1, cholesterol epoxide hydrolase (ChEH) (Homo sapiens, UniProt Q15125); assay: Activity of cholesterol epoxide hydrolase (ChEH) in MCF-7 cells, [14C]5,6α-EC metabolization by TLC; format: cell-based; conditions: MCF-7, 1 μM, 24 h, [14C]5,6α-EC 0.6 μM
T1 construct: endogenous in cells; host or cells: MCF-7
T1 sequence (Q15125 whole entry): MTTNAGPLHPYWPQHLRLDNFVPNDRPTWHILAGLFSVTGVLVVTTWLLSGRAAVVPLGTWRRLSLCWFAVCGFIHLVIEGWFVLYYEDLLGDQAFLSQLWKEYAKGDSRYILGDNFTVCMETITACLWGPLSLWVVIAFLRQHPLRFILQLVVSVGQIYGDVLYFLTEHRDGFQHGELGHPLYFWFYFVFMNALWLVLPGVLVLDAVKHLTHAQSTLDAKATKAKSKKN
Description: The compounds 5,6α-epoxycholesterol (5,6α-EC) and 5,6β-epoxycholesterol (5,6β-EC) are oxysterols involved in the anticancer pharmacology of tamoxifen, a widely used antitumor drug. They are both metabolized in cholestan-3β,5α,6β-triol (CT) by the enzyme cholesterol-5,6-epoxide hydrolase (ChEH), and CT is metabolized by the enzyme HSD11B2 (11β-hydroxysteroid dehydrogenase 2) to 6-oxo-cholestan-3β,5α-diol (OCDO), an oncosterone tumor promoter.
MCF-7 cells are in a cell culture medium identical to example 20 and are seeded in 6-well plates at 150000 cells per well with 3 wells per treatment condition. 24 h after seeding, the MCF-7 cells are treated with [^14C]5,6α-EC (stock solution 1000×: 0.6 mM; 20 μCi/μmol; final concentration 0.6 μM) alone or in combination with tamoxifen (tam). Tamoxifen is used as positive control of the study compounds. The treatment with the compound according to the invention is carried out at a concentration of 1 μM.
After 24 hours of treatment, the media are collected and lipid extracts are prepared from the cell pellets by extraction with 100 μL of chloroform, 400 μL of methanol and 300 μL of water. The lipid extracts are analyzed by thin-layer chromatography (TLC) using ethyl acetate (EtOAc) as eluent. The analysis is carried out using a plate reader and then by autoradiography.

[2] = test system: BT-474 human mammary tumor cells; assay: Cytotoxicity on BT-474 cells, MTT; format: cell-based; conditions: BT-474, MTT, 48 h; for Mean LogIC50 (±SEM): log of IC50 in μM; for IC50: Homo sapiens, read-out: IC50
Procedure: Cellular viability is measured by three different methods. For the first method, MTT labeling is carried out at 48 hours. This test is based on the use of the tetrazolium salt MTT (3-(4,5-dimethylthiazol-2-yl)-2,5-diphenyltetrazolium bromide). The tetrazolium is reduced by mitochondrial succinate dehydrogenase of active living cells, to formazan, a precipitate of a violet color. The quantity of precipitate formed is proportional to the quantity of living cells but also to the metabolic activity of each cell. […] After 48 hours, the medium is aspirated, and the cells are incubated with MTT (0.5 mg/ml in culture medium) for about 3 hours. The MTT solution is aspirated and the violet crystals are dissolved in dimethylsulfoxide (DMSO). The OD (optical density) is measured at 550 nm. The percentage viability is then determined in each well relative to the CTL and the IC50 (concentration for which there are still 50% of living cells) is determined for each molecule with Prism software using the nonlinear regression straight line (log(inhibitor) vs. Response).
(§1) The cellular viability tests were also carried out on BT-474 human mammary tumor cells (characterized as being positive triples HER2+, ER+, PR+). The BT-474 cells are in a cell culture medium identical to the preceding example and are seeded in 24-well plates at 70 000 cells per well, for determination of cellular viability using trypan blue, or in 96-well plates at 13 000 cells per well for determination of cellular viability using the MTT or LDH assay. After 96 hours (h) of culture in normal conditions, i.e. in an incubator at a temperature of 37° C. at 5% CO2, the BT-474 cells are treated for 48 h with DX101, DX107, and DX113 at 100 nM, 1 μM, 2.5 μM and 10 μM. A control is also carried out using the protocol described above but without treatment with the molecules DX101, DX107, DX113, DX117, DX119, DX121 or DX131.
(§2) After trypsin digestion for 10 minutes at 37° C., cell survival was quantified, also by a trypan blue assay with automatic counting with the Biorad TC20 equipment (TC20™ Automated Cell Counter). The trypan blue assay is based on the cell membrane integrity, which is broken in the dead cells. Trypan blue stains the dead cells blue. The Biorad TC20 cell counter counts the proportion of blue cells and non-blue cells, relative to the cell percentages. The percentage viability is then determined in each well relative to the untreated cells and the IC50 is determined as explained in the preceding example. The percentage viability of the BT-474 cells was determined using the MTT and LDH assay, carried out as described in the preceding example.

[3] = Pharmacokinetic study of DX107 (LC/MS in plasma); format: in vivo; conditions: rat, oral 50 mg/kg, administered compound assayed; for Area under curve: 0-72 h
Description: The following study is determination by LC/MS in plasma of the various molecules over 3 days (11 measurement points at the end). The graphs are always presented in comparison with DX101, which is the reference. […]

[4] = test system: BT-474 human mammary tumor cells; assay: Cytotoxicity on BT-474 cells, LDH; format: cell-based; conditions: BT-474, LDH, 48 h; for Mean LogIC50 (±SEM): log of IC50 in μM; for IC50: Homo sapiens, read-out: IC50
Procedure: For the second method, the percentage viability is determined using assay of the activity of the enzyme LDH (lactate dehydrogenase) in the cellular supernatants using the kit non radioactive cytotoxicity assay kit (Promega). LDH is an enzyme released in the supernatant of dead cells. The higher the LDH activity in the supernatant, the greater is the cell death. In this enzyme test, the LDH released converts a violet tetrazolium salt to formazan, of red color, absorbing at 490 nm. The intensity of the red color is proportional to the number of dead cells. After 48 h of treatment, the supernatants are transferred to a new 96-well plate and are incubated for 30 minutes in the presence of the substrate mix at room temperature. The reaction is stopped using the stop buffer and the absorbance is determined at 490 nm. The percentage cell death is determined here using a control 100% of maximum activity of LDH (carried out with untreated cells incubated in the presence of the lysis solution for 45 minutes at 37° C. just before adding the substrate mix), and the cellular viability in each well is then deduced from this percentage. IC50 is then determined as explained in the preceding paragraph.
as §1, §2

Which results are given for CC(C)CCC[C@@H](C)[C@H]1CC[C@H]2[C@@H]3C[C@@H](NCCc4c[nH]cn4)[C@@]4(O)C[C@@H](O)CC[C@]4(C)[C@H]3CC[C@]12C [DX101, 5α-hydroxy-6β-[2-(1H-imidazol-4-yl)-ethylamino]-cholestan-3β-ol, reference compound]?
inhibition of ChEH activity [1]: almost total (trace of CT); Mean LogIC50 (±SEM) [2]: 0.85 ± 0.02; IC50 [2]: 7.06 µM; Concentration max [3]: 140 nM; Area under curve [3]: 143297; Mean LogIC50 (±SEM) [4]: 0.99 ± 0.06; IC50 [4]: 9.72 µM

With CCC(=O)O[C@H]1CC[C@]2(C)[C@H]3CC[C@]4(C)[C@@H]([C@H](C)CCCC(C)C)CC[C@H]4[C@@H]3C[C@@H](NCCc3c[nH]cn3)[C@@]2(O)C1 [DX107, 5α-hydroxy-6β-[2-(1H-imidazol-4-yl)ethylamino]cholestan-3β-yl propionate] as the molecule, how does the “inhibition of ChEH activity” value [1] read?
The value was “inhibition of ChEH is observed relative to the control (1), but it is less than the positive control (2)”.

And the “Mean LogIC50 (±SEM)” value [2]?
Its value is 1.08 ± 0.04.

What about the IC50 [2] of the same molecule?
Its IC50 is 11.9 µM.

What about the Concentration max [3] of the same molecule?
The Concentration max was 142 nM.

And the Area under curve [3]?
Its Area under curve is 89733.

And the “Mean LogIC50 (±SEM)” value [4]?
The value was 0.95 ± 0.08.

And the IC50 [4]?
Its IC50 is 8.92 µM.
